The values that follow come from patent US8623917B2, “Uses of prostacyclin analogs” (The Regents of the University of Colorado, a body corporate, priority 2005, dated 2014).

SMILES strings stand for the structures.

For test [1], the system named is urethane-induced lung tumors. The test can be described thus: Urethane lung tumorigenesis protocol, oral Iloprost in diet. It is filed as in vivo, FVB/N mice. As for the experimental part:
(§1) Transgenic mice (Tg^+) and wildtype littermates (Tg^−), 8 to 12 weeks of age, were subjected to two distinct lung carcinogenesis protocols. In the first model, urethane (ethyl carbamate), a carcinogen which selectively induces pulmonary adenomas through genetic mutations in the oncogene ras, was administered in a single intraperitoneal (ip) dose. […] BHT is a tumor promoter and induces reversible pulmonary damage characterized by alveolar type I cell necrosis, selective pulmonary inflammation, and hyperplasia of alveolar type II cells. Controls for both models consisted of mice injected with vehicle alone. The oral administration of Iloprost was investigated and found to have a similar beneficial effects to PGIS overexpression. FVB/N mice were fed a diet of low (0.1%) or high (3.0%) dose Iloprost continuously throughout the experiment and then were subjected to tumorigenesis protocols with either urethane or MCA/BHT. At the conclusion of the experiments, animals were euthanized and tumors enumerated.

The test system of test [2] is MCA/BHT-induced lung tumors. Nature of the test: MCA/BHT lung tumorigenesis protocol, oral Iloprost in diet. It is filed as in vivo, FVB/N mice. As for the experimental part:
as §1

The test system of test [3] is cancer metastasis to the lung. As to conditions: Iloprost administered to mice; cited from earlier work.
The mark [4] stands for this setting: 3.0% Iloprost diet compared with 0.1%.
Where [5] appears, read: diet of low (0.1%) or high (3.0%) dose Iloprost continuously.

Turning to `CC#CCC(C)[C@H](O)/C=C/[C@@H]1[C@H]2C/C(=C/CCCC(=O)O)C[C@H]2C[C@H]1O` (some centres unmarked) [Iloprost], the “reduction in multiplicity, high versus low dose” value in test [1] (setting [4]) and in test [2] (setting [4]) was “greater reduction in multiplicity” throughout. For the same compound, the tumor multiplicity entry in test [1] (setting [5]) and in test [2] (setting [5]) was “significant reduction in tumor multiplicity” throughout. In addition, the “prevention of cancer metastasis to the lung” value in test [3] is recorded as “did not prevent cancer metastasis to the lung”.
